pKi: −log10 of the molar value. Like-named read-outs stand apart in the source and are kept apart here.
Assays:
[1] = target: T1, Porcine Microsomal Alpha-Glucosidase I (Sus scrofa, UniProt K7N7E7); assay: Inhibition constants against porcine microsomal alpha-glucosidase I; assay type: biochemical
T1 construct: Alpha-glucosidase I was isolated from porcine liver microsomes; from tissue; host or cells: porcine liver microsomes
T1 sequence (K7N7E7 1-839): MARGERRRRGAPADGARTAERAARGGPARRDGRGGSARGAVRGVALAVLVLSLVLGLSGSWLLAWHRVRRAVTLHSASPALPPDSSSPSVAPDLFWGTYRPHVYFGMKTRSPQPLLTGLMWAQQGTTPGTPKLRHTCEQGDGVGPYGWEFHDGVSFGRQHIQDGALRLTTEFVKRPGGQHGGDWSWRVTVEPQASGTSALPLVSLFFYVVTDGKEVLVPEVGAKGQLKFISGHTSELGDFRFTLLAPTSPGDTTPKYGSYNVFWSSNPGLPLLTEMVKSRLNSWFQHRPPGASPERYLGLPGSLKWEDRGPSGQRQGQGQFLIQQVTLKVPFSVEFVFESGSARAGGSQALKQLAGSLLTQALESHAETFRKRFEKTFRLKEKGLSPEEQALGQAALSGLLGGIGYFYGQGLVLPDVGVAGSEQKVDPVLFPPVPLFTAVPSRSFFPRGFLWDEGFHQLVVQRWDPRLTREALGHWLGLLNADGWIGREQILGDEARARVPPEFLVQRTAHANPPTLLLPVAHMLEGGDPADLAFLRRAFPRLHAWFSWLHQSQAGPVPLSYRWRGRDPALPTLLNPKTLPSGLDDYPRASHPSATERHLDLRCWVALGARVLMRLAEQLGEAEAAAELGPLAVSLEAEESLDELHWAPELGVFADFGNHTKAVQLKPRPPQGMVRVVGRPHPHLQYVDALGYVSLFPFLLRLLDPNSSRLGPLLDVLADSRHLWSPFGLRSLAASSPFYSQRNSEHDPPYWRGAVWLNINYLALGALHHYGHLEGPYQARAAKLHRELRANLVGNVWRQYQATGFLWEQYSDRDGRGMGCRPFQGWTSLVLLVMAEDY
Protocol: Porcine Microsomal Alpha-Glucosidase I. Alpha-glucosidase I was isolated from porcine liver microsomes by an affinity chromatographic method similar to that described by Hettkamp et.al., Eur J. Biochem. 142, 85-90 (1981).
Inhibition constants for the various DNJ derivatives and castanospermine were determined assuming competitive inhibition and were derived from the initial rates for the hydrolysis of [^14 C-Glc]Glc3 Man9 GlcNAc2 (at a concentration of 0.044 μM), at pH7.0 and 37° C. in the presence and absence of several fixed concentrations of each inhibitor.

[2] = target: T2, Porcine Intestinal Sucrase (Sus scrofa, UniProt P56729); assay: Inhibition constants against porcine intestinal sucrase; assay type: biochemical
T2 construct: both chains cut from one SI precursor
T2 sequence (P56729 with tags, fused parts or gaps): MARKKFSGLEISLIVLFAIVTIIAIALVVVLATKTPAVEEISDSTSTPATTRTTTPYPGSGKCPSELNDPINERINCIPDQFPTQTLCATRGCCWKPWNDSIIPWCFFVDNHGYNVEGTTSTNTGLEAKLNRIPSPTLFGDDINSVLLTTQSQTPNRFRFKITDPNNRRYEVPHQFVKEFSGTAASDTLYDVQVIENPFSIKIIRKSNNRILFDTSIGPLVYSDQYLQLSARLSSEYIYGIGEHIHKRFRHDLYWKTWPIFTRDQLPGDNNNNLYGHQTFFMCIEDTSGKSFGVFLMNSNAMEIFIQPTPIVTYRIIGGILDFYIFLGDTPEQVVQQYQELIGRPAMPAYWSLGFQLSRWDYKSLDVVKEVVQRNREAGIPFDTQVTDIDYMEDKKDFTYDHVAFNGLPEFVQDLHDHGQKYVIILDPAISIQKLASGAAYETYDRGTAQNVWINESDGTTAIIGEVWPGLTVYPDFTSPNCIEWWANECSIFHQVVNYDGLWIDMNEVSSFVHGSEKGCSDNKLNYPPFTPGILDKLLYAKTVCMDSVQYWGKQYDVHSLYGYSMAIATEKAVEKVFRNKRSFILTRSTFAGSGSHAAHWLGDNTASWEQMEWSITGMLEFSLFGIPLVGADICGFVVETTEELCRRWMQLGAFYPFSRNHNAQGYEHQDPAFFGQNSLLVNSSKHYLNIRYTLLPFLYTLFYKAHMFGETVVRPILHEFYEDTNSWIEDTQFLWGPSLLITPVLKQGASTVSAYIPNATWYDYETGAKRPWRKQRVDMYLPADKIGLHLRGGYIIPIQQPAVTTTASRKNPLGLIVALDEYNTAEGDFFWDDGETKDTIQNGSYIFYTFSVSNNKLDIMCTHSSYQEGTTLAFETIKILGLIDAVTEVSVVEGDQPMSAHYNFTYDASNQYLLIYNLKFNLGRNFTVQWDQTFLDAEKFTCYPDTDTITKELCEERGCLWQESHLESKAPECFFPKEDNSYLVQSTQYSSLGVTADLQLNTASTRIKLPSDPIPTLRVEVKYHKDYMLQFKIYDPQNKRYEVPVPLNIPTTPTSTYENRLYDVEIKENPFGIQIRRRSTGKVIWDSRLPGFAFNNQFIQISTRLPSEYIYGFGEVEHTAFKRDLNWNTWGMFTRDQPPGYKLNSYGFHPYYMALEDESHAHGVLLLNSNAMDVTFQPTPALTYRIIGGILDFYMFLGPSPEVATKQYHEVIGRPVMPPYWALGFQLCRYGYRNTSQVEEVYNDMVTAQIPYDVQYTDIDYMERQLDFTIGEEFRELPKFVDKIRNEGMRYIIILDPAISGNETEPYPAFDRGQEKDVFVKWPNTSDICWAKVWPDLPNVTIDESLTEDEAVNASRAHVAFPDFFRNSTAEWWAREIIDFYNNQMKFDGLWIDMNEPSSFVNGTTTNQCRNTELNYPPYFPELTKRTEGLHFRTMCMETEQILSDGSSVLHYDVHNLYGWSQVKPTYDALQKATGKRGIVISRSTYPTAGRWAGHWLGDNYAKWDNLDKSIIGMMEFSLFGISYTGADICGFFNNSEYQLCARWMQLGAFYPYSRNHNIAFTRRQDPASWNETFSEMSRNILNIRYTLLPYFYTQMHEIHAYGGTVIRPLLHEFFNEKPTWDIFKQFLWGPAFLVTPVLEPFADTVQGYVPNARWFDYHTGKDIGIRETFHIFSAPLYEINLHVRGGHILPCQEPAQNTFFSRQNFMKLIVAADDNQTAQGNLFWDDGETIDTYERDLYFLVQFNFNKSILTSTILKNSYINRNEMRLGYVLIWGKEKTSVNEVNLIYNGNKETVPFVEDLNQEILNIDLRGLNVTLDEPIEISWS
Protocol: (§1) Porcine Intestinal Sucrase and Maltase. A sucrase-isomaltase complex was extracted from pig small intestine by treatment with urea and then solubilized by digestion with papain. The enzyme-complex was recovered by ethanol precipitation and then further purified by cellulose DE-52 anion exchange chromatography. The activity of sucrase was assayed by incubating an appropriate amount of enzyme at 37° C. in a final volume of 150 μ1 containing 25 mM sodium citrate buffer, pH 6.0, and 30 mM sucrose as substrate. After 30 min. the enzyme was inactivated by heating at 100° C. for 3 min, the reaction mixture centrifuged at 15000×g for 15 min and a 50 µl aliquot of the supernatant removed and the enzymereleased glucose determined by the glucose oxidase-peroxidase method described by Trinder, Ann. Clin. Biochem. 6, 24 (1969). Under the standard assay conditions, the release of glucose was linear up to 10% hydrolysis of the substrate. […] Maltase activity associated with the sucrase-isomaltase complex [Kolinska and Semenze, Biochim. Biophys. Acta 146, 181 (1967)] was assayed in a manner similar to sucrase except that the substrate was 30 mM maltose. Under the standard assay conditions release of glucose was linear up to 8% hydrolysis of the substrate. The specific activity of maltase was 15.2 units/mg protein.
Inhibition constants for the various DNJ derivatives and castanospermine were determined from Lineweaver-Burk plots of the enzyme-catalyzed reaction in the presence and absence of different fixed concentrations of each inhibitor. Incubations using sucrase were for 30 min at a concentration of 90 milliunits/ml and for maltase were for 12 min at a concentration of 80 milliunits/ml.

[3] = target: T3, Porcine Intestinal Maltase (Sus scrofa, UniProt P56729); assay: Inhibition constants against porcine intestinal maltase; assay type: biochemical
T3 construct: both chains cut from one SI precursor
T3 sequence (P56729 with tags, fused parts or gaps): as above
Protocol: as §1, with “Under the standard assay conditions release of glucose was linear up to 8% hydrolysis of the substrate. The specific activity of maltase was 15.2 units/mg protein.” left out
Inhibition constants for the various DNJ derivatives and castanospermine were determined from Lineweaver-Burk plots of the enzyme-catalyzed reaction in the presence and absence of different fixed concentrations of each inhibitor. […]

[4] = tested on: human immunodeficiency virus (HIV); conditions: at noncytotoxic concentrations; cited from earlier work
[5] = tested on: bovine intestinal alkaline phosphatase; assay: Dephosphorylation by alkaline phosphatase (biolability of the phosphate group); assay type: in vitro ADME; conditions: 1 mM compound, 130 U/ml enzyme, 37° C., pH 9.5, 16 h, assayed by HPAEC
Protocol: N-Butyldeoxynojirimycin-6-phosphate (1 mM) was incubated with bovine intestinal alkaline phosphatase (Sigma Type VII, 130 U/ml) at 37° C. n 0.1 m Na2 Co3 /NaHCO3 buffer, pH 9.5.

[6] = porcine liver microsomes, substrate [14C-Glc]Glc3Man9GlcNAc2 0.044 μM, pH 7.0, 37° C., competitive inhibition assumed, read-out: Ki Microsomal α-Glucosidase I
[7] = pig small intestine, 30 mM sucrose, pH 6.0, 37° C., 30 min, Lineweaver-Burk plots, read-out: Ki Intestinal Sucrase

| SMILES | pKi [1, 6] | pKi [2, 7] | Inhibition of α-glucosidase I (in words) [1] | Dephosphorylation by alkaline phosphatase ([5]; listed as N-Butyldeoxynojirimycin-6-phosphate) | Dephosphorylation by alkaline phosphatase ([5]; listed as N-butyl-deoxynojirimycin-6-phosphate) | pKi [1] | pKi [2] | Inhibition of maltase (in words) [3] | Inhibition of sucrase (in words) [2] | Reduction of virus titer [4] |
| --- | --- | --- | --- | --- | --- | --- | --- | --- | --- | --- |
| O[C@H]1[C@H](O)[C@@H](O)CN2CC[C@H](O)[C@H]12 [Castanospermine, castanospermine] | 7.40 | 7.19 |  |  |  |  |  |  |  |  |
| OC[C@H]1NC[C@H](O)[C@@H](O)[C@@H]1O [DNJ, deoxynojirimycin] |  |  |  |  |  | 6.08 | 7.30 |  |  |  |
| CCCCN1C[C@H](O)[C@@H](O)[C@H](O)[C@H]1CO [N-BuDNJ, N-butyldeoxynojirimycin] |  |  |  |  |  | 6.66 | 6.74 | potent inhibitor | potent inhibitor | greater than five logarithms |

Second part, led by results:

| pKi [1, 6] | pKi [2, 7] | Inhibition of α-glucosidase I (in words) [1] | Dephosphorylation by alkaline phosphatase ([5]; listed as N-Butyldeoxynojirimycin-6-phosphate) | Dephosphorylation by alkaline phosphatase ([5]; listed as N-butyl-deoxynojirimycin-6-phosphate) | SMILES | pKi [1] | pKi [2] | Inhibition of maltase (in words) [3] | Inhibition of sucrase (in words) [2] | Reduction of virus titer [4] |
| --- | --- | --- | --- | --- | --- | --- | --- | --- | --- | --- |
| 2.18 | 3.28 |  |  |  | O=P(O)(O)OC[C@H]1NC[C@H](O)[C@@H](O)[C@@H]1O [DNJ-6-P, deoxynojirimycin-6-phosphate] |  |  |  |  |  |
| 2.40 | 2.82 | very weak inhibitor | completely dephosphorylated | completely dephosphorylted | CCCCN1C[C@H](O)[C@@H](O)[C@H](O)[C@H]1COP(=O)(O)O [N-BuDNJ-6-P, N-butyldeoxynojirimycin-6-phosphate] |  |  | very weak inhibitor | very weak inhibitor |  |
